EC50 data for 29 molecules are collected here from patent US20110172297A1, “Oxopiperdinyl And Pyranyl Sulfonamides and Pharmaceutical Compositions Thereof” (Pfizer Inc, priority 2008, published 2011).

Structures are written as SMILES.

In this assay the test system is AMPA receptors. The experiment in a line: AMPA ES cell FLIPR screen (AMPA Potentiator Assay). In kind it is cell-based. The note with it: murine ES cell-derived neurons, FLIPR Fluo-4 calcium signal, 32 uM AMPA challenge; values marked * are the geometric mean of 2-9 EC50 determinations. The method, then:
The murine ES cell line used was E14-Sx1-16C, which has a targeted mutation in the Sox1 gene, a neuroectodermal marker, that offers G418 resistance when the Sox1 gene is expressed (Stem Cell Sciences). ES cells were maintained undifferentiated as previously described (Roach). […] ES cells were plated on gelatin-coated dishes (BD Biosciences), the media was changed daily and the cells were dissociated with 0.05% Trypsin EDTA (Invitrogen) every other day.
Embryoid Body Formation: Prior to embryoid body (EB) formation the ES cells were weaned from FBS onto Knockout Serum Replacement (KSR) (Invitrogen). To form EBs, ES cells were dissociated into a single cell suspension, then 3×10^6 cells were plated in bacteriology dishes (Nunc 4014) and grown as a suspension culture in NeuroEB-I medium that consisted of Knockout™ D-MEM (Invitrogen), supplemented with 10% KSR (Invitrogen), 0.2 mM L-Glutamine (Invitrogen), 0.1 mM MEM non-essential amino acids (Invitrogen), 30 μg/ml Gentamicin (Invitrogen), 1000 u/ml ESGRO (Chemicon), 0.1 mM 2-Mercaptoethanl (Sigma) and 150 ng/ml Transferrin (Invitrogen). The plates were put on a Stovall Belly Button shaker in an atmospheric oxygen incubator. The media was changed on day 2 of EB formation with NeuroEB-I and on day 4 with NeuroEB-II (NeuroEB-I plus 1 μg/ml mNoggin [R&D Systems]).
Neuronal Precursor Selection and Expansion: On day 5 of EB formation, EBs were dissociated with 0.05% Trypsin EDTA, and 4×10^6cells/100 mm dish were plated on Laminin coated tissue culture dishes in Neuroll-G418 medium that consisted of a base medium of a 1:1 mixture of D-MEM/F12 supplemented with N2 supplements and NeuroBasal Medium supplemented with B27 supplement and 0.1 mM L-Glutamine (all from Invitrogen). The base medium was then supplemented with 10 ng/ml bFGF (Invitrogen), 1 μg/ml mNoggin, 500 ng/ml SHH—N, 100 ng/ml FGF-8b (R&D Systems), 1 μg/ml Laminin and 200 μg/ml G418 (Invitrogen) for selection of neuronal precursors expressing Sox-1. The plates were put in an incubator that contained 2% Oxygen and were maintained in these conditions. During the 6-day selection period, the Neuroll media was changed daily. On day 6, the surviving neuronal precursor foci were dissociated with 0.05% Trypsin EDTA and the cells were plated at a density of 1.5×10^6 cells/100 mm Laminin coated dish in Neuroll-G418 medium. The cells were dissociated every other day for expansion, and prepared for Cryopreservation at passage 3 or 4. The crypreservation medium contained 50% KSR, 10% Dimethyl Sulfoxide (DMSO) (Sigma) and 40% Neurol-G418I medium. Neuronal precursors were crypreserved at a concentration of 4×10^6 cells/ml and 1 ml/cryovial in a controlled rate freezer overnight then transferred to an ultra-low freezer or liquid nitrogen for long-term storage.
Neuronal Differentiation: Cryopreserved ES cell-derived neuronal precursors were thawed by the rapid thaw method in a 37-degree water-bath. The cells were transferred from the cryovial to a 100 mm Laminin coated tissue culture dish that already contained Neuroll-G418 that had been equilibrated in a 2% Oxygen incubator. The media was changed with fresh Neuroll-G418 the next day. The cells were dissociated every other day as described above for expansion to generate enough cells to plate for the screen. For the screen, the cells were plated into 384-well poly-d-lysine coated tissue culture dishes (BD Biosciences) by the automated SelecT at a cell density of 6K cells/well in differentiation medium Neurolll that contained a 4:1 ratio of the NeuroBasalMedium/B27:D-MEM/F12/N2 supplemented with 1 μM cAMP (Sigma), 200 μM Ascorbic Acid (Sigma), 1 μg/ml Laminin (Invitrogen) and 10 ng/ml BDNF (R&D Systems). The plates were put in an incubator with 2% Oxygen and allowed to complete the differentiation process for 7 days. The cells could then be used over a 5-day period for the high throughput screen.
On the day of the assay, the FLIPR assay may be performed using the following methods: […]
Usually EC50 stands for the concentration at which the effect is half-maximal. Take `CC(C)S(=O)(=O)N[C@H]1CCOC[C@H]1c1ccc(-c2ccc(C#N)s2)cc1` [Example 1, N-{(3S,4S)-3-[4-(5-cyano-2-thienyl)phenyl]tetrahydro-2H-pyran-4-yl}propane-2-sulfonamide]: the EC50 came out at 11 µM. For `CC(C)S(=O)(=O)N[C@H]1CCOC[C@@H]1c1ccc(-c2ccccc2)cc1` [Example 2, N-[(3R,4S)-3-biphenyl-4-yltetrahydro-2H-pyran-4-yl]propane-2-sulfonamide] the value was 0.365 µM. To `CC(C)S(=O)(=O)N[C@H]1COCC[C@@]1(O)c1ccc(-c2ccccc2)cc1` [Example 3, N-[(3S,4R)-4-biphenyl-4-yl-4-hydroxytetrahydro-2H-pyran-3-yl]propane-2-sulfonamide] belongs 4.3 µM. To `CC(C)S(=O)(=O)N[C@@H]1COCC[C@]1(O)c1ccc(-c2ccccc2)cc1` [Example 4, N-[(3R,4S)-4-biphenyl-4-yl-4-hydroxytetrahydro-2H-pyran-3-yl]propane-2-sulfonamide] belongs more than 31.6 µM; to `CC(C)S(=O)(=O)N[C@H]1COCC[C@]1(O)c1ccc(-c2ccccc2)cc1` [Example 5, N-[(3S,4S)-4-biphenyl-4-yl-4-hydroxytetrahydro-2H-pyran-3-yl]propane-2-sulfonamide], 7.66 µM; to `CC(C)S(=O)(=O)N[C@@H]1COCC[C@@]1(O)c1ccc(-c2ccccc2)cc1` [Example 6, N-[(3R,4R)-4-biphenyl-4-yl-4-hydroxytetrahydro-2H-pyran-3-yl]propane-2-sulfonamide], more than 31.6 µM. Regarding `CCOc1ccccc1-c1ccc([C@@H]2CCOC[C@H]2NS(=O)(=O)C(C)C)cc1` [Example 7, N-[(3S,4S)-4-(2′-ethoxybiphenyl-4-yl)tetrahydro-2H-pyran-3-yl]propane-2-sulfonamide], the EC50 was more than 31.6 µM. Regarding `CCOc1ccccc1-c1ccc([C@H]2CCOC[C@@H]2NS(=O)(=O)C(C)C)cc1` [Example 8, N-[(3R,4R)-4-(2′-ethoxybiphenyl-4-yl)tetrahydro-2H-pyran-3-yl]propane-2-sulfonamide], the EC50 worked out at 0.403 µM.

Take `CC(C)S(=O)(=O)N[C@H]1CCCO[C@@H]1c1ccc(-c2ccccc2)cc1` [Example 9, N-[(2R,3S)-2-biphenyl-4-yltetrahydro-2H-pyran-3-yl]propane-2-sulfonamide]: the EC50 is 4.45 µM. To `CCOc1ccccc1-c1ccc([C@@H]2NC(=O)CC[C@H]2NS(=O)(=O)C(C)C)cc1` [Example 10, N-[(2S,3R)-2-(2′-ethoxybiphenyl-4-yl)-6-oxopiperidin-3-yl]propane-2-sulfonamide] belongs more than 7.52 µM.

`CC(C)S(=O)(=O)N[C@H]1CCC(=O)N[C@@H]1c1ccc(-c2ccccc2)cc1` [Example 11, N-[(2R,3S)-2-biphenyl-4-yl-6-oxopiperidin-3-yl]propane-2-sulfonamide]: the EC50 was more than 31.6 µM. To `CC(C)S(=O)(=O)N[C@@H]1CCC(=O)N[C@H]1c1ccc(-c2ccccc2)cc1` [Example 12, N-[(2S,3R)-2-biphenyl-4-yl-6-oxopiperidin-3-yl]propane-2-sulfonamide] belongs 12.2 µM; to `CC(C)S(=O)(=O)N[C@@H]1COCC[C@@H]1c1ccc(-c2ccccc2)cc1` [Example 13, N-[(3S,4R)-4-biphenyl-4-yltetrahydro-2H-pyran-3-yl]propane-2-sulfonamide], more than 31.6 µM; to `CC(C)S(=O)(=O)N[C@@H]1COCC[C@H]1c1ccc(-c2ccccc2)cc1` [Example 15, N-[(3S,4S)-4-biphenyl-4-yltetrahydro-2H-pyran-3-yl]propane-2-sulfonamide], more than 31.6 µM. To `CC(C)S(=O)(=O)N[C@H]1COCC[C@@H]1c1ccc(-c2ccccc2)cc1` [Example 16, N-[(3R,4R)-4-biphenyl-4-yltetrahydro-2H-pyran-3-yl]propane-2-sulfonamide] belongs 1.84 µM; to `CC(C)S(=O)(=O)N[C@@H]1COCC[C@H]1c1ccc(-c2ccccc2C#N)cc1` [Example 17, N-[(3S,4S)-4-(2′-cyanobiphenyl-4-yl)tetrahydro-2H-pyran-3-yl]propane-2-sulfonamide], more than 31.6 µM; to `CC(C)S(=O)(=O)N[C@H]1COCC[C@@H]1c1ccc(-c2ccccc2C#N)cc1` [Example 18, N-[(3R,4R)-4-(2′-cyanobiphenyl-4-yl)tetrahydro-2H-pyran-3-yl]propane-2-sulfonamide], 0.415 µM. To `CC(C)S(=O)(=O)N[C@@H]1COCC[C@H]1c1ccc(-c2ccc(C#N)s2)cc1` [Example 19, N-{(3S,4S)-4-[4-(5-cyano-2-thienyl)phenyl]tetrahydro-2H-pyran-3-yl}propane-2-sulfonamide] belongs more than 31.6 µM; to `CC(C)S(=O)(=O)N[C@H]1COCC[C@@H]1c1ccc(-c2ccc(C#N)s2)cc1` [Example 20, N-{(3R,4R)-4-[4-(5-cyano-2-thienyl)phenyl]tetrahydro-2H-pyran-3-yl}propane-2-sulfonamide], 9.79 µM.

As to `CC(C)S(=O)(=O)N[C@@H]1CCOC[C@@H]1c1ccc(-c2ccc(C#N)s2)cc1` [Example 21, N-{(3R,4R)-3-[4-(5-cyano-2-thienyl)phenyl]tetrahydro-2H-pyran-4-yl}propane-2-sulfonamide], the EC50 is more than 31.6 µM. For `CC(C)S(=O)(=O)N[C@H]1CCOC[C@H]1c1ccc(-c2ccccc2C#N)cc1` [Example 22, N-[(3S,4S)-3-(2′-cyanobiphenyl-4-yl)tetrahydro-2H-pyran-4-yl]propane-2-sulfonamide] the value was 0.429 µM; for `CC(C)S(=O)(=O)N[C@@H]1CCOC[C@@H]1c1ccc(-c2ccccc2C#N)cc1` [Example 23, N-[(3R,4R)-3-(2′-cyanobiphenyl-4-yl)tetrahydro-2H-pyran-4-yl]propane-2-sulfonamide], 10.3 µM. As to `CC(C)S(=O)(=O)N[C@H]1CCOC[C@H]1c1ccc(-c2ccc(F)cc2C#N)cc1` [Example 24, N-[(3S,4S)-3-(2′-cyano-4′-fluorobiphenyl-4-yl)tetrahydro-2H-pyran-4-yl]propane-2-sulfonamide], the EC50 worked out at 0.378 µM. To `CC(C)S(=O)(=O)N[C@H]1CCOC[C@H]1c1ccc(-c2ccccc2)cc1` [Example 25, N-[(3S,4S)-3-biphenyl-4-yltetrahydro-2H-pyran-4-yl]propane-2-sulfonamide] belongs 0.684 µM; to `CC(C)S(=O)(=O)N[C@@H]1CCOC[C@@H]1c1ccc(-c2ccccc2)cc1` [Example 26, N-[(3R,4R)-3-biphenyl-4-yltetrahydro-2H-pyran-4-yl]propane-2-sulfonamide], more than 31.6 µM; to `CCOc1ccccc1-c1ccc([C@@H]2COCC[C@@H]2NS(=O)(=O)C(C)C)cc1` [Example 27, N-[(3S,4S)-3-(2′-ethoxybiphenyl-4-yl)tetrahydro-2H-pyran-4-yl]propane-2-sulfonamide], 0.32 µM.

For the molecule `CCOc1ccccc1-c1ccc([C@H]2COCC[C@H]2NS(=O)(=O)C(C)C)cc1` [Example 28, N-[(3R,4R)-3-(2′-ethoxybiphenyl-4-yl)tetrahydro-2H-pyran-4-yl]propane-2-sulfonamide], the EC50 is more than 31.6 µM. To `CC(C)S(=O)(=O)N[C@H]1CCOC[C@H]1c1ccc(-c2ccc(C#N)cc2)cc1` [Example 29, N-[(3S,4S)-3-(4′-cyanobiphenyl-4-yl)tetrahydro-2H-pyran-4-yl]propane-2-sulfonamide] belongs 4.04 µM; to `CC(C)S(=O)(=O)N[C@@H]1CCOC[C@@H]1c1ccc(-c2ccc(C#N)cc2)cc1` [Example 30, N-[(3R,4R)-3-(4′-cyanobiphenyl-4-yl)tetrahydro-2H-pyran-4-yl]propane-2-sulfonamide], more than 31.6 µM.
